Experimental data reported in ChEMBL document CHEMBL5625189, “Discovery of new diaryl ether inhibitors against Mycobacterium tuberculosis targeting the minor portal of InhA” (Eur J Med Chem, 2023).
Values after ≈ are worked out from the molar mass of the structure shown.

Legend:
Type in all cases: functional
Conditions in all cases: 432 h, time 18 day
[1] = test system: Mycobacterium tuberculosis; test: Antimycobacterial activity against Mycobacterium tuberculosis H37Ra harbouring pMV261 plasmid assessed as inhibition of bacterial growth incubated for 18 days by drop dilution method
[2] = test system: Mycobacterium tuberculosis; test: Antimycobacterial activity against Mycobacterium tuberculosis H37Ra harbouring pVV2 plasmid assessed as inhibition of bacterial growth incubated for 18 days by drop dilution method
[3] = test system: Mycobacterium tuberculosis; test: Antimycobacterial activity against Mycobacterium tuberculosis H37Ra harbouring pVV2 plasmid overexpressing katG assessed as inhibition of bacterial growth incubated for 18 days by drop dilution method
[4] = test system: Mycobacterium tuberculosis; test: Antimycobacterial activity against Mycobacterium tuberculosis H37Ra harbouring pMV261 plasmid overexpressing InhA assessed as inhibition of bacterial growth incubated for 18 days by drop dilution method
[5] = test system: Mycobacterium tuberculosis; test: Antimycobacterial activity against Mycobacterium tuberculosis H37Ra harbouring pVV16 plasmid overexpressing hadABC assessed as inhibition of bacterial growth incubated for 18 days by drop dilution method

Compound: CCN(CC)c1ccc2c(OCc3cn(Cc4ccc(Oc5ccccc5)c(O)c4)nn3)cc(=O)oc2c1
- MIC [1]: 6.25 µM (≈ 3.2 µg/mL)
- MIC [2]: 6.25 µM (≈ 3.2 µg/mL)
- MIC [3]: 6.25 µM (≈ 3.2 µg/mL)
- MIC [4]: > 25 µM
- MIC [5]: 6.25 µM (≈ 3.2 µg/mL)

Compound: Cc1cc(=O)oc2cc(OCc3cn(Cc4ccc(Oc5ccccc5)c(O)c4)nn3)ccc12
- MIC [1]: 1.25 µM (≈ 0.569 µg/mL)
- MIC [2]: 1.25 µM (≈ 0.569 µg/mL)
- MIC [3]: 1.25 µM (≈ 0.569 µg/mL)
- MIC [4]: 12.5 µM (≈ 5.69 µg/mL)
- MIC [5]: 1.25 µM (≈ 0.569 µg/mL)

Compound: CCCCCCc1ccc(Oc2ccc(Cn3cc(CNc4ccc([N+](=O)[O-])c5nonc45)nn3)cc2)c(O)c1
- MIC [1]: 2.5 µM (≈ 1.36 µg/mL)
- MIC [2]: 2.5 µM (≈ 1.36 µg/mL)
- MIC [3]: 2.5 µM (≈ 1.36 µg/mL)
- MIC [4]: 2.5 µM (≈ 1.36 µg/mL)
- MIC [5]: 2.5 µM (≈ 1.36 µg/mL)
